# Measured values published in patent publication US20070004660A1, “Synergistic Modulation of Flt3 Kinase Using Alkylquinolines and Alkylquinazolines” (priority 2005, published 2007).
# Biological target: T1, wild-type FLT3 receptor (Homo sapiens, UniProt P36888)
# T1 construct: host or cells: Baf3 (murine B cell lymphoma line), stably transfected
# T1 sequence (P36888 27-993): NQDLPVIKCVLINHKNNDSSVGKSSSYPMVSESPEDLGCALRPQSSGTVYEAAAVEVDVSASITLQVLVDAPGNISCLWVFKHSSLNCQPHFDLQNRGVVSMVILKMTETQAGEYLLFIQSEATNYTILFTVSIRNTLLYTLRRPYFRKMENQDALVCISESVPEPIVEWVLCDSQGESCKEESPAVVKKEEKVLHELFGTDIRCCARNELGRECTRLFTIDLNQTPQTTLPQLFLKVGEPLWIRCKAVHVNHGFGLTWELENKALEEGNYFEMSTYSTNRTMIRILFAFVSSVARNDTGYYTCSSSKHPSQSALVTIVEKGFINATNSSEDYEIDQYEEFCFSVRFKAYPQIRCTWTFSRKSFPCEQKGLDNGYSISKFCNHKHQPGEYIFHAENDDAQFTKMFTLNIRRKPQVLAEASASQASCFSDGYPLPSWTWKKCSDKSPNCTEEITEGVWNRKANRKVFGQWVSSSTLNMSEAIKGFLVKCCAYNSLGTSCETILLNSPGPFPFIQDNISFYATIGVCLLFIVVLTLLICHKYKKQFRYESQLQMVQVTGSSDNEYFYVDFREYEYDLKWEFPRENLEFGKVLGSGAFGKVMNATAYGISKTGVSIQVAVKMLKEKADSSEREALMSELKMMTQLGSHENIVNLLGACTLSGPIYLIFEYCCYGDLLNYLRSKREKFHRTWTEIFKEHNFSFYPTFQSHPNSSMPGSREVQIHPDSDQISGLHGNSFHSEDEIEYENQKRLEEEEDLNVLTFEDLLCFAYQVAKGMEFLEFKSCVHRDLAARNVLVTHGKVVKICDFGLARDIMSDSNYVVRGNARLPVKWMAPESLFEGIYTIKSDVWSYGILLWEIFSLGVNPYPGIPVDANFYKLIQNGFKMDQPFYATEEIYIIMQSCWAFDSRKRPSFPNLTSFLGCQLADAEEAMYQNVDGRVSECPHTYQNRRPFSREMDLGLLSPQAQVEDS
# Assay: Cell-based FLT3 receptor ELISA (FLT ligand-induced phosphorylation in Baf3 FLT3 cells)
# Conditions: 100 ng/mL Flt ligand, uncertainty ±20%
# How it was run: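 Receptor phosphotyrosine measured by sandwich ELISA (anti-FLT3 capture, HRP anti-pTyr, luminescence) in FLT3-transfected murine Baf3 cells given 1 h compound pretreatment and 10 min 100 ng/mL FLT ligand after overnight low-serum starvation; triplicates, IC50 from nonlinear regression.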
row,SMILES,IC50 [nM]
1,"O=C1CCCN1CCCOc1ccc2c(C3CCN(C(=O)Nc4ccc(N5CCOCC5)cc4)CC3)ncnc2c1 [Example 68, 4-{7-[3-(2-Oxo-pyrrolidin-1-yl)-propoxy]-quinazolin-4-yl}-piperidine-1-carboxylic acid (4-morpholin-4-yl-phenyl)-amide]",29
2,"CN1CCC(COc2ccc3c(C4CCN(C(=O)Nc5ccc(N6CCCC6)nc5)CC4)ncnc3c2)CC1 [Example 99, 4-[7-(1-Methyl-piperidin-4-ylmethoxy)-quinazolin-4-yl]-piperidine-1-carboxylic acid (6-pyrrolidin-1-yl-pyridin-3-yl)-amide]",14
3,"CC(C)Oc1ccc(NC(=O)N2CCC(c3ncnc4cc(OCCCN5CCCC5=O)ccc34)CC2)cc1 [Example 67, 4-{7-[3-(2-Oxo-pyrrolidin-1-yl)-propoxy]-quinazolin-4-yl}-piperidine-1-carboxylic acid (4-isopropoxy-phenyl)-amide]",3
4,"CN1CCC(COc2ccc3c(C4CCN(C(=O)Nc5ccc(N6CCCC6)cc5)CC4)ncnc3c2)CC1 [Example 109, 4-[7-(1-Methyl-piperidin-4-ylmethoxy)-quinazolin-4-yl]-piperidine-1-carboxylic acid (4-pyrrolidin-1-yl-phenyl)-amide]",10
5,"O=C(Nc1ccc(N2CCOCC2)cc1)N1CCC(c2ncnc3cc(OCCCN4CCCC4)ccc23)CC1 [Example 124, 4-[7-(3-Pyrrolidin-1-yl-propoxy)-quinazolin-4-yl]-piperidine-1-carboxylic acid (4-morpholin-4-yl-phenyl)-amide]",63
6,"COc1cc2ncnc(C3CCN(C(=O)Nc4ccc(OC5CCCC5)nc4)CC3)c2cc1OC [Example 69, 4-(6,7-Dimethoxy-quinazolin-4-yl)-piperidine-1-carboxylic acid (6-cyclopentyloxy-pyridin-3-yl)-amide]",29
7,"CN1CCN(CCCOc2ccc3c(C4CCN(C(=O)Nc5ccc(N6CCOCC6)nc5)CC4)ncnc3c2)CC1 [Example 80, 4-{7-[3-(4-Methyl-piperazin-1-yl)-propoxy]-quinazolin-4-yl}-piperidine-1-carboxylic acid (6-morpholin-4-yl-pyridin-3-yl)-amide]",19
8,"COc1cc2ncnc(C3CCN(C(=O)Nc4ccc(N5CCCC5=O)cc4)CC3)c2cc1OC [Example 57, 4-(6,7-Dimethoxy-quinazolin-4-yl)-piperidine-1-carboxylic acid [4-(2-oxo-pyrrolidin-1-yl)-phenyl]-amide]",381
9,"COc1cc2ncnc(C3CCN(C(=O)Nc4ccc(C(C)C)cc4)CC3)c2cc1OC [Example 4, 4-(6,7-Dimethoxy-quinazolin-4-yl)-piperidine-1-carboxylic acid (4-isopropyl-phenyl)-amide]",56
10,"CCC(C)c1ccc(NC(=O)N2CCC(c3ncnc4cc(OC)c(OC)cc34)CC2)cc1 (stereo not shown) [Example 52, 4-(6,7-Dimethoxy-quinazolin-4-yl)-piperidine-1-carboxylic acid (4-sec-butyl-phenyl)-amide]",7
11,"COc1cc2ncnc(C3CCN(C(=O)Nc4ccc(-c5cncnc5)cc4)CC3)c2cc1OC [Example 58, 4-(6,7-Dimethoxy-quinazolin-4-yl)-piperidine-1-carboxylic acid (4-pyrimidin-5-yl-phenyl)-amide]",265
12,"CN1CCCN(CCCOc2ccc3c(C4CCN(C(=O)Nc5ccc(N6CCOCC6)cc5)CC4)ncnc3c2)CC1 [Example 125, 4-{7-[3-(4-Methyl-[1,4]diazepan-1-yl)-propoxy]-quinazolin-4-yl}-piperidine-1-carboxylic acid (4-morpholin-4-yl-phenyl)-amide]",66
13,"O=C1CCCN1CCOc1ccc2c(C3CCN(C(=O)Nc4ccc(N5CCOCC5)nc4)CC3)ncnc2c1 [Example 83, 4-{7-[2-(2-Oxo-pyrrolidin-1-yl)-ethoxy]-quinazolin-4-yl}-piperidine-1-carboxylic acid (6-morpholin-4-yl-pyridin-3-yl)-amide]",37
14,"CC(C)Oc1ccc(NC(=O)N2CCC(c3ncnc4cc(OCCCNS(C)(=O)=O)ccc34)CC2)cc1 [Example 65, 4-[7-(3-Methanesulfonylamino-propoxy)-quinazolin-4-yl]-piperidine-1-carboxylic acid (4-isopropoxy-phenyl)-amide]",37
15,"CCOc1ccc(NC(=O)N2CCC(c3ncnc4cc(OC)c(OC)cc34)CC2)cc1 [Example 44, 4-(6,7-Dimethoxy-quinazolin-4-yl)-piperidine-1-carboxylic acid (4-ethoxy-phenyl)-amide]",163
16,"CC(C)Oc1ccc(NC(=O)N2CCC(c3ncnc4ccc(OCCCN5CCCC5=O)cc34)CC2)cc1 [Example 101, 4-{6-[3-(2-Oxo-pyrrolidin-1-yl)-propoxy]-quinazolin-4-yl}-piperidine-1-carboxylic acid (4-isopropoxy-phenyl)-amide]",42
17,"CS(=O)(=O)N1CCN(CCCOc2ccc3c(C4CCN(C(=O)Nc5ccc(N6CCOCC6)cc5)CC4)ncnc3c2)CC1 [Example 118, 4-{7-[3-(4-Methanesulfonyl-piperazin-1-yl)-propoxy]-quinazolin-4-yl}-piperidine-1-carboxylic acid (4-morpholin-4-yl-phenyl)-amide]",10
18,"CC(C)Oc1ccc(NC(=O)N2CCC(c3ncnc4ccc(C#CCN5CCCCC5)cc34)CC2)cc1 [Example 14, 4-[6-(3-Piperidin-1-yl-prop-1-ynyl)-quinazolin-4-yl]-piperidine-1-carboxylic acid (4-isopropoxy-phenyl)-amide]",186
19,"CN1CCC(COc2ccc3c(C4CCN(C(=O)Nc5ccc(OC6CCC6)nc5)CC4)ncnc3c2)CC1 [Example 107, 4-[7-(1-Methyl-piperidin-4-ylmethoxy)-quinazolin-4-yl]-piperidine-1-carboxylic acid (6-cyclobutoxy-pyridin-3-yl)-amide]",21
20,"CS(=O)(=O)NCCCOc1ccc2c(C3CCN(C(=O)Nc4ccc(N5CCCC5)nc4)CC3)ncnc2c1 [Example 86, 4-[7-(3-Methanesulfonylamino-propoxy)-quinazolin-4-yl]-piperidine-1-carboxylic acid (6-pyrrolidin-1-yl-pyridin-3-yl)-amide]",9
21,"CC(C)Oc1ccc(NC(=O)N2CCC(c3ncnc4ccccc34)CC2)cc1 [Example 8, 4-Quinazolin-4-yl-piperidine-1-carboxylic acid (4-isopropoxy-phenyl)-amide]",851
22,"COc1cc2ncnc(C3CCN(C(=O)Nc4ccc(C5=CCNCC5)cc4)CC3)c2cc1OC [Example 62, 4-(6,7-Dimethoxy-quinazolin-4-yl)-piperidine-1-carboxylic acid [4-(1,2,3,6-tetrahydro-pyridin-4-yl)-phenyl]-amide]",976
23,"O=C1CCCN1CCOc1ccc2c(C3CCN(C(=O)Nc4ccc(N5CCCC5)cc4)CC3)ncnc2c1 [Example 74, 4-{7-[2-(2-Oxo-pyrrolidin-1-yl)-ethoxy]-quinazolin-4-yl}-piperidine-1-carboxylic acid (4-pyrrolidin-1-yl-phenyl)-amide]",12
24,"COc1cc2ncnc(C3CCN(C(=O)Nc4ccc(-c5ccc(Cl)nc5)cc4)CC3)c2cc1OC [Example 60, 4-(6,7-Dimethoxy-quinazolin-4-yl)-piperidine-1-carboxylic acid [4-(6-chloro-pyridin-3-yl)-phenyl]-amide]",46
25,"COCCCOc1ccc2c(C3CCN(C(=O)Nc4ccc(N5CCOCC5)cc4)CC3)ncnc2c1 [Example 78, 4-[7-(3-Methoxy-propoxy)-quinazolin-4-yl]-piperidine-1-carboxylic acid (4-morpholin-4-yl-phenyl)-amide]",20
26,"O=C(Nc1ccc(N2CCOCC2)cc1)N1CCC(c2ncnc3cc(OCCN4CCOCC4)ccc23)CC1 [Example 96, 4-[7-(2-Morpholin-4-yl-ethoxy)-quinazolin-4-yl]-piperidine-1-carboxylic acid (4-morpholin-4-yl-phenyl)-amide]",243
27,"COc1cc2ncnc(C3CCN(C(=O)NC4CCC(C(C)(C)C)CC4)CC3)c2cc1OC (stereo not shown) [Example 54, 4-(6,7-Dimethoxy-quinazolin-4-yl)-piperidine-1-carboxylic acid (4-tert-butyl-cyclohexyl)-amide]",266
28,"O=C(Nc1ccc(N2CCOCC2)nc1)N1CCC(c2ncnc3cc(OCCN4CCOC4=O)ccc23)CC1 [Example 91, 4-{7-[2-(2-Oxo-oxazolidin-3-yl)-ethoxy]-quinazolin-4-yl}-piperidine-1-carboxylic acid (6-morpholin-4-yl-pyridin-3-yl)-amide]",6
